Assay results reported in PubChem BioAssay AID248 (DTP/NCI, 2004).
Inconclusive results and toxic doses are left out. No stated cut-off is given here; in the data, active means T/C of 150% or more; inactive means T/C below 125%.

System: L1210 leukemia ip in BDF1 mice, survival T/C
Assay: NCI In Vivo Anticancer Drug Screen. Data for tumor model L1210 Leukemia (intraperitoneal) in B6D2F1 (BDF1) mice
Conditions: endpoint: mean survival time, higher = longer survival
In short: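 Transplanted-tumor mice were given test agent; controls received vehicle only. Survival readings from the two groups were divided (treated over control).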

Measured: T/C

C[n+]1ccccc1/C=C/c1ccc(O)c(O)c1
inactive: dose: 75.0 mg/kg/injection, schedule: Q01DX001 (ip), vehicle: saline 96 % of control | dose: 300.0 mg/kg/injection, schedule: Q01DX001 (ip), vehicle: saline 102 % of control

COC(=O)c1ccccc1C1=C(O)C(=O)C(c2ccccc2C(=O)OC)=C(O)C1=O
inactive: dose: 100.0 mg/kg/injection, schedule: Q01DX009 (ip), vehicle: Klucel (hydroxypropylcellulose) (HPC) 97 % of control | dose: 200.0 mg/kg/injection, schedule: Q01DX009 (ip), vehicle: Klucel (hydroxypropylcellulose) (HPC) 98 % of control

NCC(c1ccccc1)C(Cc1ccccc1)[N+](=O)[O-] (centres undefined)
inactive: dose: 75.0 mg/kg/injection, schedule: Q01DX001 (ip), vehicle: other 115 % of control | dose: 150.0 mg/kg/injection, schedule: Q01DX001 (ip), vehicle: other 104 % of control

CC(=O)NNC(=O)c1ccccc1
inactive: dose: 100.0 mg/kg/injection, schedule: Q01DX009 (ip), vehicle: saline with Tween-80 101 % of control | dose: 100.0 mg/kg/injection, schedule: Q01DX009 (ip), vehicle: saline 106 % of control | dose: 100.0 mg/kg/injection, schedule: Q04DX003 (ip), vehicle: saline with Tween-80 106 % of control | dose: 200.0 mg/kg/injection, schedule: Q01DX009 (ip), vehicle: saline with Tween-80 109 % of control | dose: 200.0 mg/kg/injection, schedule: Q01DX009 (ip), vehicle: saline 113 % of control | dose: 200.0 mg/kg/injection, schedule: Q04DX003 (ip), vehicle: saline with Tween-80 108 % of control | dose: 400.0 mg/kg/injection, schedule: Q04DX003 (ip), vehicle: saline with Tween-80 101 % of control

O=C1C=CC(=O)N1c1cc(Cl)c(Cl)cc1Cl
inactive: dose: 10.0 mg/kg/injection, schedule: Q01DX001 (ip), vehicle: saline 97 % of control | dose: 20.0 mg/kg/injection, schedule: Q01DX001 (ip), vehicle: saline 87 % of control | dose: 40.0 mg/kg/injection, schedule: Q01DX001 (ip), vehicle: saline 95 % of control

O=C(O)c1ccccc1C(NC(=O)N1C(=O)C=CC1=O)NC(=O)N1C(=O)C=CC1=O
inactive: dose: 100.0 mg/kg/injection, schedule: Q01DX001 (ip), vehicle: carboxymethylcellulose (CMC) 97 % of control | dose: 200.0 mg/kg/injection, schedule: Q01DX001 (ip), vehicle: carboxymethylcellulose (CMC) 97 % of control | dose: 400.0 mg/kg/injection, schedule: Q01DX001 (ip), vehicle: carboxymethylcellulose (CMC) 106 % of control
